The text below walks through data of patent US9233951B2, “Heterocyclic compounds as pesticides” (Bayer Intellectual Property GmbH, priority 2010, dated 2016).

One data set is described as follows: physchem. In kind it is physicochemical. How it is done: 1 Method Description for Determination of the logP values and Mass Detection
Eluents for determination in the acidic range (pH 3.4): • Eluent A: acetonitrile+1 ml formic acid/l.
The λmax values were determined in the maxima of the chromatographic signals using the UV spectra from 200 nm to 400 nm. The mass was detected (M^+, m/z) by means of an Agilent MSD mass spectrometer.

In data set [1] the test system is green peach aphid (Myzus persicae). Briefly: Myzus persicae test (spray treatment). In kind it is in vivo. The note with it: foliar, 144 h, read-out: efficacy in %. As for the experimental part:
Myzus persicae Test (Spray Treatment)
• Solvent: 78 parts by weight of acetone • 1.5 parts by weight of dimethylformamide • Emulsifier: 0.5 part by weight of alkylaryl polyglycol ether
To prepare an appropriate active ingredient preparation, 1 part by weight of active ingredient is mixed with the stated amounts of solvent and emulsifier, and the concentrate is diluted with emulsifier-containing water to the desired concentration. Discs of Chinese cabbage (Brassica pekinensis) infested by all stages of the green peach aphid (Myzus persicae) are sprayed with an active ingredient preparation of the desired concentration.
After 6 days, the efficacy in % is determined. 100% means that all of the aphids have been killed; 0% means that none of the aphids have been killed.

The test system of data set [2] is armyworm (Spodoptera frugiperda). The experiment in a line: Spodoptera frugiperda test (spray treatment). It is filed as in vivo. The settings on record: application rate 500 g/ha; maize leaf discs sprayed; after 7 days; 100% = all caterpillars killed. How it is done:
Spodoptera frugiperda Test (Spray Treatment)
• Solvent: 78.0 parts by weight of acetone • 1.5 parts by weight of dimethylformamide • Emulsifier: 0.5 part by weight of alkylaryl polyglycol ether
To prepare an appropriate active ingredient preparation, 1 part by weight of active ingredient is mixed with the stated amounts of solvent and emulsifier, and the concentrate is diluted with emulsifier-containing water to the desired concentration. Discs of maize leaves (Zea mays) are sprayed with an active ingredient preparation of the desired concentration and, after drying, populated with the armyworm (Spodoptera frugiperda).
After 7 days, the efficacy in % is determined. 100% means that all caterpillars have been killed; 0% means that none of the caterpillars have been killed.

Where [3] appears, read: reverse-phase HPLC column (C 18), pH 3.4, HPLC, reverse-phase C 18, acidic range pH 3.4, 55° C., table of compounds, read-out: logP (HCO2H).
[4] abbreviates: reverse-phase HPLC column (C 18), pH 3.4, HPLC-MS value printed in the preparation example text, acidic range pH 3.4, read-out: logP (HCOOH).
[5] abbreviates: application rate 500 g/ha, Chinese cabbage leaf discs sprayed, after 6 days, 100% = all aphids killed.

Structures are written as SMILES. Read-outs that look alike come from different tables or passages of the source.

As for `CN(C)C(=O)c1cnc(-c2cccnc2)o1` [Compound 25, N,N-Dimethyl-2-(pyridin-3-yl)-1,3-oxazole-5-carboxamide], the chromatographic logP in “physchem” (setting [3]) and in the data set “physchem” (setting [4]) was 1.43 in each case. The pest or weed control at 500 g/ha in data set [1] (setting [5]) was determined as 90%.
Regarding `O=C(NCC1CC1)c1ccc(-c2cccnc2)o1` [Compound 30], the chromatographic logP in the data set “physchem” (setting [3]) worked out at 1.39. For the same molecule, the pest or weed control at 500 g/ha in data set [1] (setting [5]) turned out to be 100%.
On to `CNC(=O)c1ccc(-c2cccnc2)o1` [Compound 31, N-Methyl-5-(pyridin-3-yl)furan-2-carboxamide], for which the chromatographic logP in the data set “physchem” (setting [3]) and in “physchem” (setting [4]) was 0.42 throughout. In data set [1] (in Brassica rapa), the pest or weed control at 500 g/ha is 100%.
`CCCNC(=O)c1ccc(-c2cccnc2)o1` [Compound 32]: the chromatographic logP in the data set “physchem” (setting [3]) amounted to 0.83. Also, the pest or weed control at 500 g/ha in data set [1] (setting [5]) was 100%.
For `O=C(NCC(F)F)c1csc(-c2cccnc2)n1` [Compound 33, N-(2,2-Difluoroethyl)-2-(pyridin-3-yl)-1,3-thiazole-4-carboxamide], the chromatographic logP in the data set “physchem” (pH 3.4, HPLC, reverse-phase C 18, acidic range pH 3.4, 55° C., table of compounds, read-out: logP (HCO2H)) was found to be 1.22; in “physchem” (pH 3.4, HPLC-MS value printed in the preparation example text, acidic range pH 3.4, read-out: logP (HCOOH)), 1.18. Moreover, the pest or weed control at 500 g/ha in data set [1] (in Brassica rapa) came out at 100%.
For the molecule `CSC[C@H](C)NC(=O)c1nnc(-c2cccnc2)o1` [Compound 35], the chromatographic logP in the data set “physchem” (setting [3]) was determined as 1.39. Besides, the pest or weed control at 500 g/ha in data set [1] (setting [5]) stood at 80%.
For the molecule `O=C(NCC(F)(F)F)c1ccn(-c2cccnc2)c1` [Compound 36, 1-(Pyridin-3-yl)-N-(2,2,2-trifluoroethyl)pyrrole-3-carboxamide], the chromatographic logP in “physchem” (setting [3]) and in “physchem” (setting [4]) was 1.24 in each case. In addition, the pest or weed control at 500 g/ha in data set [1] (in Brassica rapa) came out at 90%.
Take `CC(F)(F)CNC(=O)c1cn(-c2cccnc2)nn1` [Compound 37, N-(2,2-Difluoropropyl)-1-(pyridin-3-yl)-1H-1,2,3-triazole-4-carboxamide]: the chromatographic logP in the data set “physchem” (setting [3]) was found to be 1.21; in the data set “physchem” (setting [4]), 1.25. The molecule also registered an efficacy in % in data set [2] of 100%. Further, the pest or weed control at 500 g/ha in data set [1] (in Brassica rapa) was 100%.
Take `CC(F)(F)CNC(=O)c1cc(-c2cccnc2)ns1` [Compound 38, N-(2,2-Difluoropropyl)-3-(pyridin-3-yl)-1,2-thiazole-5-carboxamide]: the chromatographic logP in “physchem” (setting [3]) and in the data set “physchem” (setting [4]) was 1.33 in each case. In addition, the pest or weed control at 500 g/ha in data set [1] (in Brassica rapa) was 100%.
In “physchem” (pH 3.4, logP (HCO2H)), `O=C(NCc1ncccn1)C1CN=C(c2cccnc2)S1` (centres unmarked) [Compound 43] showed a chromatographic logP of 0.32. In data set [1] (setting [5]), the pest or weed control at 500 g/ha is 100%.
`O=C(NCC(F)(F)F)C1CN=C(c2cncnc2)S1` (centres unmarked) [Compound 45]: in “physchem” (setting [3]), the chromatographic logP was 1.4. The pest or weed control at 500 g/ha in data set [1] (setting [5]) turned out to be 100%.
